Measured values taken from the supplement of paper PMC12137928.
Structures can show the parent of a compound that is named as a salt.

Test system: HCT116
Settings: 72 h
Method in brief: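 IC50 and maximal efficacy were derived from four-parameter Hill curve fits. The underlying CellTiter-Glo luminescence was scaled so that vehicle equals 0% and positive control equals -100%, and was then pattern-corrected. HCT116 cells had been seeded in 1536-well plates at 250 per well.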

| Structure (SMILES) | IC50 cell viability (ICRF193 0 nM) | IC50 cell viability (ICRF193 200 nM) |
| --- | --- | --- |
| CCCCOc1cc(C(=O)NCCN(CC)CC)c2ccccc2n1 [Dibucaine] | > 45.8 µM | > 45.8 µM |
| CCCCCCCCCCCC(=O)[O][Sn]([CH2]CCC)([CH2]CCC)[O]C(=O)CCCCCCCCCCC [Dibutyltin dilaurate] | > 45.8 µM | > 45.8 µM |
| CCOC(=O)OCC/C(SC(=O)OCC)=C(\C)N(C=O)Cc1cnc(C)nc1N [Dicethiamine hydrochloride] | > 45.8 µM | > 45.8 µM |
| NCCN.[Cl][Pt][Cl] [Dichloro(ethylenediamine)platinum(II)] | > 45.8 µM | > 45.8 µM |
| COP(=O)(OC)OC=C(Cl)Cl [Dichlorvos] | > 45.8 µM | > 45.8 µM |
| O=C(O)Cc1ccccc1Nc1c(Cl)cccc1Cl [Diclofenac sodium] | > 45.8 µM | > 45.8 µM |
| NS(=O)(=O)c1cc(Cl)c(Cl)c(S(N)(=O)=O)c1 [Diclofenamide] | > 45.8 µM | > 45.8 µM |
| Cc1onc(-c2c(Cl)cccc2Cl)c1C(=O)N[C@@H]1C(=O)N2[C@@H]1SC(C)(C)[C@@H]2C(=O)O [Dicloxacillin sodium salt monohydrate] | > 45.8 µM | > 45.8 µM |
| O=c1oc2ccccc2c(O)c1Cc1c(O)c2ccccc2oc1=O [Dicumarol] | > 45.8 µM | > 45.8 µM |
| C1CCC(NC2CCCCC2)CC1 [Dicyclohexylamine] | > 45.8 µM | > 45.8 µM |
| CCN(CC)CCOC(=O)C1(C2CCCCC2)CCCCC1 [Dicyclomine] | > 45.8 µM | > 45.8 µM |
| S=C(SSC(=S)N1CCCCC1)N1CCCCC1 [Dicyclopentamethylenethiuram disulfide] | > 45.8 µM | > 45.8 µM |
| C[C@]12CCC3=C4CCC(=O)C=C4CC[C@H]3[C@@H]1CC[C@@]2(O)CC#N [Dienogest] | > 45.8 µM | > 45.8 µM |
| CCOC(=O)c1ccccc1C(=O)OCC [Diethyl phthalate] | > 45.8 µM | > 45.8 µM |
| CC(=O)OCC(=O)[C@@]1(OC(C)=O)[C@@H](C)C[C@H]2[C@@H]3C[C@H](F)C4=CC(=O)C=C[C@]4(C)[C@@]3(F)[C@@H](O)C[C@@]21C [Diflorasone diacetate] | > 45.8 µM | > 45.8 µM |
| CN1CCN(c2cc3c(cc2F)c(=O)c(C(=O)O)cn3-c2ccc(F)cc2)CC1 [Difloxacin hydrochloride] | > 45.8 µM | > 45.8 µM |
| O=C(O)c1cc(-c2ccc(F)cc2F)ccc1O [Diflunisal] | > 45.8 µM | > 45.8 µM |
| CCCC(=O)O[C@]1(C(=O)COC(C)=O)CC[C@H]2[C@@H]3C[C@H](F)C4=CC(=O)C=C[C@]4(C)[C@@]3(F)[C@@H](O)C[C@@]21C [Difluprednate] | > 45.8 µM | > 45.8 µM |
| CC(C)C[C@H]1C(=O)N2CCC[C@H]2[C@]2(O)O[C@](NC(=O)[C@@H]3C[C@@H]4c5cccc6[nH]cc(c56)C[C@H]4N(C)C3)(C(C)C)C(=O)N12 [Dihydroergocriptine] | > 45.8 µM | > 45.8 µM |
| CN1C[C@H](C(=O)N[C@]2(C)O[C@@]3(O)[C@@H]4CCCN4C(=O)[C@H](Cc4ccccc4)N3C2=O)C[C@@H]2c3cccc4[nH]cc(c34)C[C@H]21 [Dihydroergotamine] | > 45.8 µM | > 45.8 µM |
| CC(C)[C@@H](C)/C=C/[C@@H](C)[C@H]1CC[C@H]2/C(=C/C=C3\C[C@@H](O)CC[C@@H]3C)CCC[C@]12C [Dihydrotachysterol] | > 45.8 µM | > 45.8 µM |
| CC(C)NC(C)C [Diisopropylamine] | > 45.8 µM | > 45.8 µM |
| CN(C(=O)C(Cl)Cl)c1ccc(OC(=O)c2ccco2)cc1 [Diloxanide furoate] | > 45.8 µM | > 45.8 µM |
| COc1ccc([C@@H]2Sc3ccccc3N(CCN(C)C)C(=O)[C@@H]2OC(C)=O)cc1 [Diltiazem] | > 45.8 µM | > 45.8 µM |
